From patent US10314821B2, “Crystalline forms of 4-cyano-N-(2-(4,4-dimethylcyclohex-1-en-1-yl)-6-(2,2,6,6-tetramethyltetrahydro-2H-pyran-4-yl)pyridin-3-yl)-1H-imidazole-2-carboxamide” (Janssen Pharmaceutica NV, priority 2016, dated 2019)

How the values were obtained:
Assay type in all cases: physicochemical
[1] = Visual solubility of Compound A, Form I in solvents; settings: 50 mg in 10 mL, stirred, heated to 40° C.; for solubility: organic solvent or mixture, thermodynamic from solid
From the text: An automated solid-state form screening of Compound A was done using a binary solvent system. Screening experiments consisted of an array of 13 solvents (water, methanol, ethanol, acetone, acetonitrile, isopropyl alcohol, ethyl acetate, toluene, tetrahydrofuran (THF), dichloromethane, 2-butanone (MEK), 1-butanol, and heptane) under slow evaporation crystallization conditions. Specifically, saturated solutions of Compound A (prepared as described in Example 1 above) in 13 different solvents were prepared by adding solid powder of Compound A, Form I (50 mg, prepared as described in Example 1 above) and the selected solvent to 20 mL vials. The resulting solutions were stirred and heated to 40° C. All preparations dissolved quickly except in water, toluene, and heptane. Table 1 provides a summary of the visual solubility of Compound A, Form I in the noted solvents.

[2] = Hygroscopicity and water solubility by USP methods; settings: isolated solid, freebase
Experimental: The isolated solid (Compound A, as a freebase) was a white crystalline solid, hygroscopic and insoluble in water as determined by USP methods. […] The XRD for Form I of Compound A differed from the XRD of a sample of the HCl salt of Compound A (e.g., FIG. 15). […] (equivalent to 0.23 mole of water) due to surface water loss and 0.5% between 182° C. and 219° C. due to melting/decomposition (as shown in FIG. 12). This differed from the TGA spectrum of the HCl salt of Compound A (e.g., FIG. 17).

[3] = Moisture sorption analysis (DVS)
Experimental: The moisture sorption analysis was performed using a Hiden Isochema system Model IGAsorp. The sample was run in a stainless-steel mesh crucible. The sample was initially dried at 60° C. for 30 minutes then the moisture profile was evaluated by monitoring vapor adsorption/desorption over the range of 0 to 90% relative humidity at 25° C. The moisture profile consisted of 2 cycles of vapor adsorption/desorption.

[4] = Slurry studies in organic solvents, form by XRPD
Experimental: Small scale saturated solutions of Compound A, Form I (prepared as described in Example 1 above) in the organic solvents noted in Example 2, except water, toluene, or heptane, were prepared as follows. Compound A, Form I (5-10 mg) was added to 2 mL HPLC vials and the selected solvent (50 μL) was added. The resulting slurries were stirred at 300 rpm for up to 1 day. At 1 hour and 1 day time-points, a sample of each slurry was placed on an XRPD sample holder and the solvent evaporated under ambient conditions to yield a solid residue which was then analyzed by X-ray powder diffraction.

[5] = Competitive slurry studies in water, form by XRPD
Experimental: Competitive slurry studies of Compound A, Forms II, IIA, IIB, III, IV, V, and VI were conducted at RT (room temperature, about 20° C.) and 50° C. in water. […] A small portion of the slurry was transferred to 50° C. after 2 days and analyzed using powder X-ray after being slurred at 50° C. for 2 hours (where a sample of the slurry was placed on an XRPD sample holder, the solvent allowed to evaporate under ambient conditions to yield a residue, and an XRPD measured for the residue). Complete conversion to Form I took place within 2 hours of heating.

[6] = at the end of a second moisture sorption-desorption cycle

Question: With `CC1(C)CC=C(c2nc(C3CC(C)(C)OC(C)(C)C3)ccc2NC(=O)c2nc(C#N)c[nH]2)CC1` [Compound A, Form I, 4-cyano-N-[2-(4,4-dimethylcyclohex-1-en-1-yl)-6-(2,2,6,6-tetramethyltetrahydro-2H-pyran-4-yl)pyridine-3-yl]-1H-imidazole-2-carboxamide] as the molecule, how does the “Visual Solubility” value ([1]; 1-Butanol) read?
Answer: Its value is “Dissolve”.

Question: And the “Visual Solubility” value ([1]; Acetone)?
Answer: The value was “Dissolve”.

Question: What about the “Visual Solubility” value ([1]; Acetonitrile) of the same molecule?
Answer: The value was “Dissolve”.

Question: And the “Visual Solubility” value ([1]; Dichloromethane)?
Answer: Its value is “Dissolve”.

Question: And the “Visual Solubility” value ([1]; Ethanol)?
Answer: The value was “Dissolve”.

Question: And the “Visual Solubility” value ([1]; Ethyl Acetate)?
Answer: Its value is “Dissolve”.

Question: What about the “Visual Solubility” value ([1]; Heptane) of the same molecule?
Answer: The value was “Suspension”.

Question: What about the solubility ([1]; IPA (isopropyl alcohol), IPA) of the same molecule?
Answer: Its solubility is > 5000 µg/mL.

Question: And the “Visual Solubility” value ([1]; IPA)?
Answer: Its value is “Dissolve”.

Question: What about the “Visual Solubility” value ([1]; Methanol) of the same molecule?
Answer: Its value is “Dissolve”.

Question: And the “Visual Solubility” value ([1]; MethylEthylKetone (MEK))?
Answer: Its value is “Dissolve”.

Question: What about the “Visual Solubility” value ([1]; THF) of the same molecule?
Answer: Its value is “Dissolve”.

Question: What about the “Visual Solubility” value ([1]; Toluene) of the same molecule?
Answer: Its value is “Suspension”.

Question: What about the “Visual Solubility” value ([1]; Water) of the same molecule?
Answer: Its value is “Suspension”.

Question: What about the solubility ([1]; methyl ethyl ketone (MEK, 2-butanone), MethylEthylKetone (MEK)) of the same molecule?
Answer: The solubility was > 5000 µg/mL.

Question: And the solubility ([1]; 1-Butanol)?
Answer: Its solubility is > 5000 µg/mL.

Question: And the solubility ([1]; Acetone)?
Answer: Its solubility is > 5000 µg/mL.

Question: And the solubility ([1]; Acetonitrile)?
Answer: The solubility was > 5000 µg/mL.

Question: What about the solubility ([1]; Dichloromethane) of the same molecule?
Answer: The solubility was > 5000 µg/mL.

Question: What about the solubility ([1]; Ethanol) of the same molecule?
Answer: Its solubility is > 5000 µg/mL.

Question: What about the solubility ([1]; Ethyl Acetate) of the same molecule?
Answer: The solubility was > 5000 µg/mL.

Question: What about the solubility ([1]; Methanol) of the same molecule?
Answer: Its solubility is > 5000 µg/mL.

Question: What about the solubility ([1]; tetrahydrofuran (THF), THF) of the same molecule?
Answer: The solubility was > 5000 µg/mL.

Question: What about the Hygroscopicity [2] of the same molecule?
Answer: Its Hygroscopicity is “hygroscopic”.

Question: What about the Solubility in water [2] of the same molecule?
Answer: The Solubility in water was “insoluble”.

Question: And the “Hygroscopicity by DVS” value ([3]; 0 to 90% relative humidity at 25° C.)?
Answer: The value was “hygroscopic”.

Question: What about the “Crystalline form upon humidity cycling (XRPD before and after DVS)” value ([3]; 2 cycles of adsorption/desorption) of the same molecule?
Answer: The value was “did not change”.

Question: And the Moisture retained [3, 6]?
Answer: The Moisture retained was 1.8%.

Question: And the “Moisture retained, equivalent mole of water” value [3, 6]?
Answer: Its value is 0.47 mole of water.

Question: And the Moisture adsorption ([3]; up to 90% RH, 25° C.)?
Answer: The Moisture adsorption was 41.8%.

Question: What about the “Saturated Conc.” value ([4]; 1-Butanol slurry) of the same molecule?
Answer: The value was 90 mg/mL.

Question: What about the “Saturated Conc.” value ([4]; Acetone slurry) of the same molecule?
Answer: Its value is 130 mg/mL.

Question: What about the “Saturated Conc.” value ([4]; Acetonitrile slurry) of the same molecule?
Answer: Its value is 80 mg/mL.

Question: And the “Saturated Conc.” value ([4]; DCM (dichloromethane) slurry)?
Answer: The value was 210 mg/mL.

Question: And the “Saturated Conc.” value ([4]; Ethanol slurry)?
Answer: The value was 110 mg/mL.

Question: And the “Saturated Conc.” value ([4]; Ethyl Acetate slurry)?
Answer: The value was 120 mg/mL.

Question: What about the “Saturated Conc.” value ([4]; IPA (isopropyl acetate) slurry) of the same molecule?
Answer: The value was 95 mg/mL.

Question: And the “Saturated Conc.” value ([4]; Methanol slurry)?
Answer: Its value is 80 mg/mL.

Question: What about the “Saturated Conc.” value ([4]; THF (tetrahydrofuran) slurry) of the same molecule?
Answer: The value was 420 mg/mL.

Question: And the “XRPD pattern of solids isolated from solvent slurries” value ([4]; all solvent slurries except THF and DCM)?
Answer: Its value is “consistent with Form I”.

Question: And the “Relative thermodynamic stability of polymorphs” value ([5]; as indicated by competitive slurry, hypothesized)?
Answer: Its value is “most thermodynamically stable polymorph”.

Question: With `CC1(C)CC=C(c2nc(C3CC(C)(C)OC(C)(C)C3)ccc2NC(=O)c2nc(C#N)c[nH]2)CC1` [Compound A, Form II, 4-cyano-N-[2-(4,4-dimethylcyclohex-1-en-1-yl)-6-(2,2,6,6-tetramethyltetrahydro-2H-pyran-4-yl)pyridine-3-yl]-1H-imidazole-2-carboxamide] as the molecule, how does the “Time to complete conversion to Form I” value ([5]; competitive slurry in water at RT (about 20° C.)) read?
Answer: The value was 3 days.
